Source: patent US20240246942A1, “KINASE INHIBITORS FOR THE TREATMENT OF NEURODEGENERATIVE DISEASES” (priority 2020, published 2024)

Key:
JNK3α1 = JNK3α1 (Homo sapiens, UniProt P53779); format: biochemical; details: for IC50: mean of ≥2 experiments, read-out: Biochemical inhibition IC50 JNK3
Method: (§1) A 10-point titration of all compounds was carried out in 3-fold dilutions from 10 μM to 0.5 nM.

JNK1 = JNK1 (Homo sapiens, UniProt P45983); experiment: JNK1 homogeneous time-resolved fluorescence enzyme inhibition assay; format: biochemical; details: for IC50: mean of ≥2 experiments, read-out: Biochemical inhibition IC50 JNK1; for R: ratio of IC50 values of JNK1 over JNK3: isoform selectivity against JNK1
Method: as §1

JNK2 = JNK2 (Homo sapiens, UniProt P45984); experiment: JNK2 homogeneous time-resolved fluorescence enzyme inhibition assay; format: biochemical; details: for R: ratio of IC50 values of JNK2 over JNK3: isoform selectivity against JNK2; for IC50: mean of ≥2 experiments, read-out: Biochemical inhibition IC50 JNK2
Method: as §1

p38α = p38α (Homo sapiens, UniProt Q16539); experiment: p38 enzyme inhibition assay; details: mean of ≥2 experiments; read-out: Biochemical inhibition IC50 p38α
SHSY5Y cells = experiment: MTT cytotoxicity assay; format: cell-based; design: dose or concentration left out as unconfirmed; details: 48 hrs, average of ≥2 experiments;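 further: compounds tested at 10 µM final concentration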
Method: A day before the assay, cells were plated at 50,000/well in 96 well plates in the culture medium. […] After the incubation, cells were subjected to MTT assay using Vybrant MTT Cell Proliferation kit as directed by the vendor (Life Technologies).

CYP1A2 = target: T1, CYP1A2 (Homo sapiens, UniProt P05177); experiment: P450 cocktail inhibition assay, CYP1A2; format: in vitro ADME; details: at 10 μM
T1 sequence (P05177 1-516): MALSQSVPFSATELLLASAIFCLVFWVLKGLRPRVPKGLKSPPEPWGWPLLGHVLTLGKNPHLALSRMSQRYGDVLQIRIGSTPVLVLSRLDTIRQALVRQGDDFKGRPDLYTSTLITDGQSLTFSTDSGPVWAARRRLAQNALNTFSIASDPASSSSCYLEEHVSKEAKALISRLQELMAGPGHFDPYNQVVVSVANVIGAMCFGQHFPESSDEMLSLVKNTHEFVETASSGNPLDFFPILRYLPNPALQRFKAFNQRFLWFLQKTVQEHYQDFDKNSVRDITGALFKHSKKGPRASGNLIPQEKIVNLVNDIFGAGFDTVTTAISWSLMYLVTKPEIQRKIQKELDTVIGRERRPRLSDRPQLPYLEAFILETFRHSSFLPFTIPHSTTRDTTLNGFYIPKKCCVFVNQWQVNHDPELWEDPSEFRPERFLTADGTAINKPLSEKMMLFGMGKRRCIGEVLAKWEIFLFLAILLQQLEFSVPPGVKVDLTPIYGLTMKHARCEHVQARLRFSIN
Method: (§2) P450s inhibition for four major isoforms are evaluated using a cocktail inhibition assay where the metabolism of specific marker substrate (CYP1A2 phenaceten […] to acetaminophen); CYP2C9, tolbutamide hydroxylation to hydrocytolbutamide; CYP2D6, bufuralol hydroxylation to […]; and CYP3A4, midazolam hydroxylation to 1′-Hydroxymidazolam) in the presence or absence of 10 TM probe compound is evaluated. The concentration of each marker substrate is approximately its Km. […] Specific inhibitors for each isoform are included in each run to validate the system.

CYP2C9 = CYP2C9 (Homo sapiens, UniProt P11712); experiment: P450 cocktail inhibition assay, CYP2C9; format: in vitro ADME; details: at 10 μM
Method: as §2

CYP2D6 = CYP2D6 (Homo sapiens, UniProt P10635); experiment: P450 cocktail inhibition assay, CYP2D6; format: in vitro ADME; details: at 10 μM
Method: as §2

CYP3A4 = CYP3A4 (Homo sapiens, UniProt P08684); experiment: P450 cocktail inhibition assay, CYP3A4; format: in vitro ADME; details: at 10 μM
Method: as §2

[1] = Microsomal stability, human; format: in vitro ADME; details: human microsomes
[2] = Microsomal stability, mouse; format: in vitro ADME; details: mouse microsomes
[3] = tested on: JNK3-dependent phosphorylation of APP at T668; experiment: JNK3 inhibition assay in rat primary neuron cultures (Western blot, anisomycin activated); format: cell-based; details: even at a concentration as low as 10 nM; FIGS. 5A-5C
Method: Both hippocampal and cortical neurons were isolated from E18 rat embryos and cultured in NbActive 1 medium that contains B27 (Brainbits, LLC) plus penicillin/streptomycin (Life Technologies). At the 7th day in culture, cells were treated with different concentrations of inhibitors diluted in DMSO and 80 ng/ml Anisomycin for 30 min to activate the endogenous JNK3. At the end of incubation time, whole cell lysates were prepared in RIPA buffer containing 50 mM Tris (pH 8.0), 150 mM NaCl, 2 mM EDTA, 1% NP-40, 0.5% deoxycholate supplemented with 10 mM Na pyrophosphate, 1 mM sodium orthovanadate, 25 mM NaF, 10 μg/ml leupeptin, 10 μg/ml aprotinin, 1 mM β-glycerophosphate, and 2 mM PMSF. The lysates were subjected to Western blotting to detect whether inhibitors block JNK3-dependent phosphorylation of APP at T668 and c-jun at S73. Phospho-APP^T668, phosphor-c-jun^S73, APP, and c-jun antibodies were from Cell Signaling Technology.

Sequence of CYP2D6 (P10635 whole entry): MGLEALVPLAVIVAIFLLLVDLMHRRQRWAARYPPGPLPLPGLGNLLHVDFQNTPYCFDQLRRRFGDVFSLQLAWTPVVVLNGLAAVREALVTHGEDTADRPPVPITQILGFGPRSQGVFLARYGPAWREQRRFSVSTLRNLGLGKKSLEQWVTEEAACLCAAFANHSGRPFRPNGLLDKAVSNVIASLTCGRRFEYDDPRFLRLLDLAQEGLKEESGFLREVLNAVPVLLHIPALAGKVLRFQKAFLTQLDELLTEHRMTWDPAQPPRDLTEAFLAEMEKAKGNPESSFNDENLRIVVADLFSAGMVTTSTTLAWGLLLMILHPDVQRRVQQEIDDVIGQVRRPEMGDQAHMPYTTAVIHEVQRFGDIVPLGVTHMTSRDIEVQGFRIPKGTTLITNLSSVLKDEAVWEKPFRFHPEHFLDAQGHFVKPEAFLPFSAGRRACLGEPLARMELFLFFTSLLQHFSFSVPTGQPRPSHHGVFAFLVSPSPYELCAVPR
Sequence of JNK2 (P45984 whole entry, canonical isoform): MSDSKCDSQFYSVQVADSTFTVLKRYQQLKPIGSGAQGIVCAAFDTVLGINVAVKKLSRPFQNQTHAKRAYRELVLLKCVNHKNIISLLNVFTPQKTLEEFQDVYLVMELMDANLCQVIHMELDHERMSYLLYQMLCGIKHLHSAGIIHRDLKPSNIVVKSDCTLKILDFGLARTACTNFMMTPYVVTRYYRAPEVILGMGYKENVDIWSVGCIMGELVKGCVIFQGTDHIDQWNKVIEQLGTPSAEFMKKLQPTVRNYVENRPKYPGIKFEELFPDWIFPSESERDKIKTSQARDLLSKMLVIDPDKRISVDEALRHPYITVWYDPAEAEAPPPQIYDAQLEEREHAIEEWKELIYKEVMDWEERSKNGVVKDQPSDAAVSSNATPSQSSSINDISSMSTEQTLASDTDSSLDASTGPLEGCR
Sequence of p38α (Q16539 whole entry): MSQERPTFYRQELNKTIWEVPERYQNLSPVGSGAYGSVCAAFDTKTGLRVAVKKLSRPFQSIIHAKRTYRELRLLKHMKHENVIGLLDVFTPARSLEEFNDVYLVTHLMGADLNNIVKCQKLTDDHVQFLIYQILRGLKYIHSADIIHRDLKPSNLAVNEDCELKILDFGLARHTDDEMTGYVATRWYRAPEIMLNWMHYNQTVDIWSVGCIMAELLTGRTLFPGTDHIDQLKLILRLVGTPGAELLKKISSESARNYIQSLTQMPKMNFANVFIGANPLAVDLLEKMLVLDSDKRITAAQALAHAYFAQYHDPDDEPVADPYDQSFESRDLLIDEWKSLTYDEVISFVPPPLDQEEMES
Sequence of JNK1 (P45983 whole entry, canonical isoform): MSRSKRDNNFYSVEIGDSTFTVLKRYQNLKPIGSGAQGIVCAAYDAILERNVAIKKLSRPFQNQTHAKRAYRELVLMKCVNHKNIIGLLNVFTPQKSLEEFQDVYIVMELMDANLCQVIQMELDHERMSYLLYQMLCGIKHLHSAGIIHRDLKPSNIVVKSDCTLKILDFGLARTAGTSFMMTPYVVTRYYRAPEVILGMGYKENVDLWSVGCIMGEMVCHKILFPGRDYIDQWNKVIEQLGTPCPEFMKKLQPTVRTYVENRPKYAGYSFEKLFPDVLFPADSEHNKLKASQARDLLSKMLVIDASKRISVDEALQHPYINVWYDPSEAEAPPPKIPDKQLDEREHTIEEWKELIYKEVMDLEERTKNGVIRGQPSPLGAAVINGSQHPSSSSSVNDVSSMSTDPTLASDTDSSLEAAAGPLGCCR
Sequence of JNK3α1 (P53779 1-422 isoform P53779-2): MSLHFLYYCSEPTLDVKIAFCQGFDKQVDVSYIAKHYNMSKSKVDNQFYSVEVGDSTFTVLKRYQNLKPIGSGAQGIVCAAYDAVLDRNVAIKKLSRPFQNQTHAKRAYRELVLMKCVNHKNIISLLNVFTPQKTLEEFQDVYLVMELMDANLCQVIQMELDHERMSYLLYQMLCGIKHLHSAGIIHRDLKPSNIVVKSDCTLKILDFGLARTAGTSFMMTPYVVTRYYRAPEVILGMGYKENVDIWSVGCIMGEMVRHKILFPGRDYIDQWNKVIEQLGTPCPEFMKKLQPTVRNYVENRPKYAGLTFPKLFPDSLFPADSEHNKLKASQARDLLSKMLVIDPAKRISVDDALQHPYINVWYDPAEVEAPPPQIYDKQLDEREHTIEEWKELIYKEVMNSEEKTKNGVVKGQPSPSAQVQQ
Sequence of CYP3A4 (P08684 whole entry): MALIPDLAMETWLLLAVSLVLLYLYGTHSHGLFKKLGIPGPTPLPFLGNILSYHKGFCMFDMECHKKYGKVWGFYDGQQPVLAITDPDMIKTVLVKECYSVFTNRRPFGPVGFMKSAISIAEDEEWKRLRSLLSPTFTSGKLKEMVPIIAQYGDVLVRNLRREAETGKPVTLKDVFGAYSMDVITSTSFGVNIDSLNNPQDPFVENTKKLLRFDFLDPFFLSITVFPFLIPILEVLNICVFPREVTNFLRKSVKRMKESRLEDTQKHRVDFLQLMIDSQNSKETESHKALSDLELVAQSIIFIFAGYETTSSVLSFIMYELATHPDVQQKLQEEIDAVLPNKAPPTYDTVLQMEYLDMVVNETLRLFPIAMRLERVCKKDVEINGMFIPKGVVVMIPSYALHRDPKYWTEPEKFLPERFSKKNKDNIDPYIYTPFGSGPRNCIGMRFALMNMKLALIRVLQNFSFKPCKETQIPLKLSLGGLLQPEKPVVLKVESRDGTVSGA
Sequence of CYP2C9 (P11712 whole entry): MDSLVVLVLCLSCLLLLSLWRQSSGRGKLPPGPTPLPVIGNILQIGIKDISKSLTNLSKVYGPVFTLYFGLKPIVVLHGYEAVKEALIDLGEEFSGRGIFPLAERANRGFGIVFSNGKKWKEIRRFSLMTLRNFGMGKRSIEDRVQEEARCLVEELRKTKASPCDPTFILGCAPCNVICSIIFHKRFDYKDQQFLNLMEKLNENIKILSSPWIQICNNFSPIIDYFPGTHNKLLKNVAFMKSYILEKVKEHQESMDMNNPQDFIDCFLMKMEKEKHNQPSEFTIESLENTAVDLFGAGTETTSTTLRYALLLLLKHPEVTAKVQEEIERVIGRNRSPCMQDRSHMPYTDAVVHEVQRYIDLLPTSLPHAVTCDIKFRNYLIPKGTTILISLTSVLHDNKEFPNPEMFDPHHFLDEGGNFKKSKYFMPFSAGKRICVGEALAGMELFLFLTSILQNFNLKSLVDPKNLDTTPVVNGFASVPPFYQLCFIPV

| Compound | IC50 (JNK3α1) [nM] | IC50 (JNK1) [nM] | R: ratio of IC50 values of JNK2 over JNK3 (JNK2) | IC50 (JNK2) [nM] | IC50 (p38α) [nM] | MTT cell viability (SHSY5Y cells) [%] | CYP-450 % inh. 1A2 (CYP1A2) [%] | CYP-450 % inh. 2C9 (CYP2C9) [%] | CYP-450 % inh. 2D6 (CYP2D6) [%] | CYP-450 % inh. 3A4 (CYP3A4) [%] | Mic. stability t1/2 Human [1] [min] | Mic. stability t1/2 Mouse [2] [min] | R: ratio of IC50 values of JNK1 over JNK3 (JNK1) | reduction in JNK3 inhibitions (JNK3α1; compared to 16) [fold] | inhibition of phosphorylation of residue T668 of APP [3] |
| --- | --- | --- | --- | --- | --- | --- | --- | --- | --- | --- | --- | --- | --- | --- | --- |
| CN1CCC(NC(=O)c2cc(-n3cc(NC(=O)Nc4ccccc4Cl)cn3)cs2)CC1 [Compound 14, 4-(4-(3-(2-chlorophenyl)ureido)-1H-pyrazol-1-yl)-N-(1-methylpiperidin-4-yl)thiophene-2-carboxamide] | 84 | 4200 | 33 | 2770 | > 20000 | 89 | −6 | −19 | −5 | −34 | 92 | 15 | – | – | – |
| O=C(Nc1cnn(-c2csc(C(=O)NC3CCOCC3)c2)c1)Nc1ccccc1Cl [Compound 15, 4-(4-(3-(2-chlorophenyl)ureido)-1H-pyrazol-1-yl)-N-(tetrahydro-2H-pyran-4-yl)thiophene-2-carboxamide] | 50 | 1900 | 21 | 1050 | > 20000 | 97 | 32 | 7 | 0 | −35 | 32 | 16 | 38 | – | – |
| O=C(Nc1cnn(-c2csc(C(=O)NCC3CCOCC3)c2)c1)Nc1ccccc1Cl [Compound 24, 4-(4-(3-(2-chlorophenyl)ureido)-1H-pyrazol-1-yl)-N-((tetrahydro-2H-pyran-4-yl)methyl)thiophene-2-carboxamide] | 24 | 1500 | 34 | 810 | > 20000 | 95 | 36 | 64 | 32 | 21 | 8 | 15 | 63 | – | – |
| Cc1sc(C(=O)N[C@@H]2CCOC2)cc1-n1cc(NC(=O)Nc2c(F)cccc2Cl)cn1 [Compound 28, (R)-4-(4-(3-(2-chloro-6-fluorophenyl)ureido)-1H-pyrazol-1-yl)-5-methyl-N-(tetrahydrofuran-3-yl)thiophene-2-carboxamide] | – | – | – | – | – | 114 | 34 | 35 | 17 | 26 | 40 | 38 | – | 7 | significantly inhibited |
| O=C(Nc1cnn(-c2csc(C(=O)NC3COC3)c2)c1)Nc1ccc(F)cc1Cl [Compound 26, 4-(4-(3-(2-chloro-4-fluorophenyl)ureido)-1H-pyrazol-1-yl)-N-(oxetan-3-yl)thiophene-2-carboxamide] | – | – | – | – | – | 104 | 38 | 47 | 30 | −5 | >120 | 68 | – | – | significantly inhibited |
